{"source": "ChEMBL document CHEMBL1201862", "about": "“PubChem BioAssay data set” (2004)", "key": {"[1]": {"target": "T1, Heat shock factor protein 1 (Mus musculus, UniProt P38532)", "T1 sequence (P38532 whole entry)": "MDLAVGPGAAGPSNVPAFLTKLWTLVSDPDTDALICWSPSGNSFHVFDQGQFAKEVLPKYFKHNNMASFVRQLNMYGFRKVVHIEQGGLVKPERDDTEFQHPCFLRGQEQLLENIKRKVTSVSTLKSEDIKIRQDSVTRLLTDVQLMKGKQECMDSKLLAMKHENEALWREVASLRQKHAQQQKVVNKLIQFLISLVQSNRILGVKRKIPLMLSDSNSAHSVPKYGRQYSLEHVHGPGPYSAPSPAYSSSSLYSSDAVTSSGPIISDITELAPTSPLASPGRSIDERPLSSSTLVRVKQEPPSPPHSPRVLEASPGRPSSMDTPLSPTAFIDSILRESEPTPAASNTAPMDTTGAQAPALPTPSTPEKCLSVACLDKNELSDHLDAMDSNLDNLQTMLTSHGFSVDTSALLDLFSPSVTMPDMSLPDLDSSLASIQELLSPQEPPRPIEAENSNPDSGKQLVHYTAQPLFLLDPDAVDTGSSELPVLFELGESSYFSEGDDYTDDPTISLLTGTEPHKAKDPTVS", "assay": "inhibition of MG132-induced HSE-luciferase signal, confirmation, cell-based, NIH3T3, luminescence, dose retest (AID 2382);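 further: NIH3T3 fibroblasts with HSF1-driven luciferase reporter stressed by proteasome inhibitor MG132; luminescence from HSF1-driven luciferase expression after 8 hours of MG132 stress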", "assay_type": "functional"}, "[2]": {"assay": "Luminescence-based dose response cell-based high throughput screening assay for cytotoxic compounds using the IEC-6 intestinal epithelial cell line. [Related pubchem assays: 1858 (Summary AID.), 1825 (Counterscreen.), 1907 (Confirmation screen.)]", "assay_type": "functional"}, "[3]": {"assay": "growth suppression of PTEN-null colon cells, dose response, cell-based, HCT116 PTEN knockout (AID 1047);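 further: HCT116 colon tumor cells with PTEN knocked out; cells exposed to compound for 60 hours before readout; potency for loss of cell viability measured by luminescence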", "assay_type": "functional"}, "[4]": {"assay": "growth suppression of beta-catenin-knockout colon cells, dose response, cell-based, HCT116, human colon tumor (AID 1045);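 further: HCT116 colon tumor cells with beta catenin knocked out; cells exposed to compound for 60 hours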", "assay_type": "functional"}, "Jurkat": {"system": "Jurkat", "assay": "antigen receptor-induced NF-kB inhibitors, dose response, Jurkat, luciferase reporter, luminescence, B- and T-cell (AID 489004);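 further: NF-kB luciferase reporter Jurkat cells stimulated with PMA plus ionomycin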", "assay_type": "functional, cell-based", "conditions": "Homo sapiens"}, "[5]": {"assay": "cytotoxicity in HEK-293T NF-kB-Luc cells, dose response, cytotoxicity control for B/T-cell NF-kB inhibitor project, cell-based, uHTS hits (AID 489019);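 further: IC50 reflects cytotoxicity as loss of cell viability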", "assay_type": "functional"}, "[6]": {"target": "T2, Replicative DNA helicase DnaB (Mycobacterium tuberculosis, UniProt P9WMR3)", "T2 sequence (P9WMR3 whole entry)": "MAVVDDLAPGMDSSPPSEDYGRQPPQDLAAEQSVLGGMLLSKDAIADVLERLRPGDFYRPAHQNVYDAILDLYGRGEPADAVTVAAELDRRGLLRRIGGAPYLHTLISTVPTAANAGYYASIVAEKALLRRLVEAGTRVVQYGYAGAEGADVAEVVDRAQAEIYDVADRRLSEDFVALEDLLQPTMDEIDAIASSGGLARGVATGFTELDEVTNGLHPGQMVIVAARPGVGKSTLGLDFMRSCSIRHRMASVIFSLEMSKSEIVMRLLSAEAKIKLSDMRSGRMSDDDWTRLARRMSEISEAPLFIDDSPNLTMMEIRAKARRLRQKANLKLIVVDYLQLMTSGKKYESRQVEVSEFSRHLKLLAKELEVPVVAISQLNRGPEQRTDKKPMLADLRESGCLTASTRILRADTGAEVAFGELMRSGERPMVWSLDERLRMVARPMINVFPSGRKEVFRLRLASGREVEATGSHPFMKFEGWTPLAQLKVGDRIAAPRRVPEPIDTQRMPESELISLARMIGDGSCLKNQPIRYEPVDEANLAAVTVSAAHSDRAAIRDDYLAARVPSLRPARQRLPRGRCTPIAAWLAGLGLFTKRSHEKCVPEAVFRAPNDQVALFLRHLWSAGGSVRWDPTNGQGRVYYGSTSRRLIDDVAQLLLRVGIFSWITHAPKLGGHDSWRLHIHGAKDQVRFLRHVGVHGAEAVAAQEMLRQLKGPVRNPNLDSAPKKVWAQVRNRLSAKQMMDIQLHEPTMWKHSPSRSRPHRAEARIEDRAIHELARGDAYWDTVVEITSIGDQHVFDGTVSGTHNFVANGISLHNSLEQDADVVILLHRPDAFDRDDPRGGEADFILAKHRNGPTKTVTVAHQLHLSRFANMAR", "assay": "DnaB intein splicing inhibitors, dose response, biochemical, cell-free fluorescence (AID 449749)", "assay_type": "functional"}, "Protein RecA": {"target": "T3, Protein RecA (Mycobacterium tuberculosis, UniProt P9WHJ3)", "T3 sequence (P9WHJ3 whole entry)": "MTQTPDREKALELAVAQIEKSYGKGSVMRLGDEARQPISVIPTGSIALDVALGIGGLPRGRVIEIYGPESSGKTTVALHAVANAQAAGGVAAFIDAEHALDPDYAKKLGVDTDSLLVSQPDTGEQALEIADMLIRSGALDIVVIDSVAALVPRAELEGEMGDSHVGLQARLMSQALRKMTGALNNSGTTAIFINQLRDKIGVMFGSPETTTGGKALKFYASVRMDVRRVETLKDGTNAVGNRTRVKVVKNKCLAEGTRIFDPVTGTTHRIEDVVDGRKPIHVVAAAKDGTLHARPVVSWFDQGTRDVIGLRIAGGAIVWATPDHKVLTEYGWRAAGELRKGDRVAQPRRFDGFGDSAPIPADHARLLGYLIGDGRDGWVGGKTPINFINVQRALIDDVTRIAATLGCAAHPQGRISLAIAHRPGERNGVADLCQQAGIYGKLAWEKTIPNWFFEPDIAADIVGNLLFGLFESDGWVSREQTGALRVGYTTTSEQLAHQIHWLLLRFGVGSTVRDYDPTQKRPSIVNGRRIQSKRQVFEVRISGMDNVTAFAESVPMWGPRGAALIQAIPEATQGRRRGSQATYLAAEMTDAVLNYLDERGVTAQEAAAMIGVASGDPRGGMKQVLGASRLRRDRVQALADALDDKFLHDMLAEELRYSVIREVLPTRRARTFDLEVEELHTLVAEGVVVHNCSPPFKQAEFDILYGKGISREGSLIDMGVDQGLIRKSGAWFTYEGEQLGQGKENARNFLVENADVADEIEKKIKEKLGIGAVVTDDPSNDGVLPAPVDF", "assay": "Fluorescence Cell-Free Homogeneous Dose Retest to Identify Inhibitors of RecA-Intein Splicing Activity. [Related pubchem assays (depositor defined):AID2097, AID2223, AID489010, AID492950]", "assay_type": "functional"}, "Melanocortin receptor 4": {"target": "Melanocortin receptor 4 (Homo sapiens, UniProt P32245)", "sequence (P32245 whole entry)": "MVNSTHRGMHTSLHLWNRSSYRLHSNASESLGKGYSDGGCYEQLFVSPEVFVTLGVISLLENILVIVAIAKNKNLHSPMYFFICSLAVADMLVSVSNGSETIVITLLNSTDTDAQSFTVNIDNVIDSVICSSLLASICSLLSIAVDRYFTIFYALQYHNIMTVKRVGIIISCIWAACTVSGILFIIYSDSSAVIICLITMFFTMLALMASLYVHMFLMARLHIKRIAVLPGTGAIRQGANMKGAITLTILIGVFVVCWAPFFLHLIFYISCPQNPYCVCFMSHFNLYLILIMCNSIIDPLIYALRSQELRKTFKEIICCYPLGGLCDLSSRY", "assay": "MC4R antagonist potency on cAMP, dose response, cell-based, TR-FRET, biased antagonists (AID 602298);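 further: antagonist potency against agonist-stimulated cAMP production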", "assay_type": "functional"}, "[7]": {"assay": "Shn3 3'UTR reporter inhibitors, dose response, cell-based, Clone20 osteoblasts, firefly luciferase, cherry-picked (AID 624132)", "assay_type": "functional"}, "[8]": {"assay": "HepG2 cell cytotoxicity, dose response, cytotoxicity control for Shn3 inhibitor project, CellTiter-Glo, cherry-picked (AID 624134)", "assay_type": "functional, cell-based"}, "[9]": {"assay": "control 3'UTR Renilla luciferase suppression, dose response, counter-screen for Shn3 inhibitor project, cell-based, Clone20-Shn3RL, cherry-picked (AID 624133)", "assay_type": "functional"}, "[10]": {"assay": "nonselective inhibitors of cellular cAMP signaling, dose response, counter-screen for MC4R biased antagonist project, cell-based, TR-FRET cAMP detection (AID 602305);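 further: U2OS cells stimulated with forskolin near its EC80 as the cAMP inducer; potency is for inhibition of forskolin-stimulated cAMP signaling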", "assay_type": "functional"}, "[11]": {"assay": "inhibitors of Vif binding to APOBEC3G peptide, primary screen, biochemical, TR-FRET, GST-Vif 1-94, biotin-A3G peptide, dose response retest (AID 1117319);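 further: inhibitors lower the FRET signal by blocking Vif and A3G binding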", "assay_type": "functional"}, "[12]": {"assay": "Vero cell cytotoxicity, dose response, cytotoxicity control for Vif-APOBEC3G degradation inhibitor project, Vero cells (AID 1117358)", "assay_type": "functional", "conditions": "Human immunodeficiency virus 1, Vero"}, "SUMO E1/E2": {"target": "SUMO E1/E2 (Homo sapiens, UniProt P63279+Q9UBE0+Q9UBT2)", "sequence (Q9UBE0 whole entry)": "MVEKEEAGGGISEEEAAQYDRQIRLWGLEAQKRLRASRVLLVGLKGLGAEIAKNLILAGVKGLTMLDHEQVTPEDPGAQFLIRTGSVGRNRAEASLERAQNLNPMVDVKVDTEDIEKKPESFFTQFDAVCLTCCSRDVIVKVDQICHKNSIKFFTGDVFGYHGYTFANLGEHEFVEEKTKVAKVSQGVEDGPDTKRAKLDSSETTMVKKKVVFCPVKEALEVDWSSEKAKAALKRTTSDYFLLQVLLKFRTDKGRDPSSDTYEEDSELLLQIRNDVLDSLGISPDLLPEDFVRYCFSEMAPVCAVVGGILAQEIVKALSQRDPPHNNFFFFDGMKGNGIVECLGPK", "sequence (Q9UBT2 whole entry)": "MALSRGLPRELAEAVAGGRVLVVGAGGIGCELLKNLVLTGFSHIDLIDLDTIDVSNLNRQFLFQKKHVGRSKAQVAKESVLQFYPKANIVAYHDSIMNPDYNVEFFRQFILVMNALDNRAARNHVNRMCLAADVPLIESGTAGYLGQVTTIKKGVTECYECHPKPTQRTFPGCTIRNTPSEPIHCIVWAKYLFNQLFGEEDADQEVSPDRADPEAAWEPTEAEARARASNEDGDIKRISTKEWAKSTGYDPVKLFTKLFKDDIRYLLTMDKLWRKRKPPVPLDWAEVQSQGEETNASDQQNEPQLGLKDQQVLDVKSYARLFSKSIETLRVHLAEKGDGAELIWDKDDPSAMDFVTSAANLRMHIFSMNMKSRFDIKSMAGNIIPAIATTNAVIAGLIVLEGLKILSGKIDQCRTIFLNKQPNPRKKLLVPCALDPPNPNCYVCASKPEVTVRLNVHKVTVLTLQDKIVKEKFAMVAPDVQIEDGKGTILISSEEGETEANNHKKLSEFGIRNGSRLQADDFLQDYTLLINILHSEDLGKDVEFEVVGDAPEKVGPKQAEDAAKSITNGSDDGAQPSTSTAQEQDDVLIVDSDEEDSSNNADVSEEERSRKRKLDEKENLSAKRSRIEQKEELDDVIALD", "sequence (P63279 whole entry)": "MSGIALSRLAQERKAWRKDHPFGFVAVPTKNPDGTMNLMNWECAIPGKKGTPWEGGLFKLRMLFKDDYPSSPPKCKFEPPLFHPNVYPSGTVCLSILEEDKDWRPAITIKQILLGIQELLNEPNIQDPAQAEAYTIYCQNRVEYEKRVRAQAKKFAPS", "assay": "SAR analysis of SUMOylation using HTRF in an in-Vitro dose response assay. [Related pubchem assays (depositor defined):AID2006, AID2011, AID2018, AID2069, AID2658]", "assay_type": "functional"}, "[13]": {"target": "T4, Voltage-gated N-type calcium channel alpha-1B subunit/Amyloid beta A4 precursor protein-binding family A member 1 (Homo sapiens, UniProt Q00975+Q02410)", "T4 sequence (Q00975 whole entry)": "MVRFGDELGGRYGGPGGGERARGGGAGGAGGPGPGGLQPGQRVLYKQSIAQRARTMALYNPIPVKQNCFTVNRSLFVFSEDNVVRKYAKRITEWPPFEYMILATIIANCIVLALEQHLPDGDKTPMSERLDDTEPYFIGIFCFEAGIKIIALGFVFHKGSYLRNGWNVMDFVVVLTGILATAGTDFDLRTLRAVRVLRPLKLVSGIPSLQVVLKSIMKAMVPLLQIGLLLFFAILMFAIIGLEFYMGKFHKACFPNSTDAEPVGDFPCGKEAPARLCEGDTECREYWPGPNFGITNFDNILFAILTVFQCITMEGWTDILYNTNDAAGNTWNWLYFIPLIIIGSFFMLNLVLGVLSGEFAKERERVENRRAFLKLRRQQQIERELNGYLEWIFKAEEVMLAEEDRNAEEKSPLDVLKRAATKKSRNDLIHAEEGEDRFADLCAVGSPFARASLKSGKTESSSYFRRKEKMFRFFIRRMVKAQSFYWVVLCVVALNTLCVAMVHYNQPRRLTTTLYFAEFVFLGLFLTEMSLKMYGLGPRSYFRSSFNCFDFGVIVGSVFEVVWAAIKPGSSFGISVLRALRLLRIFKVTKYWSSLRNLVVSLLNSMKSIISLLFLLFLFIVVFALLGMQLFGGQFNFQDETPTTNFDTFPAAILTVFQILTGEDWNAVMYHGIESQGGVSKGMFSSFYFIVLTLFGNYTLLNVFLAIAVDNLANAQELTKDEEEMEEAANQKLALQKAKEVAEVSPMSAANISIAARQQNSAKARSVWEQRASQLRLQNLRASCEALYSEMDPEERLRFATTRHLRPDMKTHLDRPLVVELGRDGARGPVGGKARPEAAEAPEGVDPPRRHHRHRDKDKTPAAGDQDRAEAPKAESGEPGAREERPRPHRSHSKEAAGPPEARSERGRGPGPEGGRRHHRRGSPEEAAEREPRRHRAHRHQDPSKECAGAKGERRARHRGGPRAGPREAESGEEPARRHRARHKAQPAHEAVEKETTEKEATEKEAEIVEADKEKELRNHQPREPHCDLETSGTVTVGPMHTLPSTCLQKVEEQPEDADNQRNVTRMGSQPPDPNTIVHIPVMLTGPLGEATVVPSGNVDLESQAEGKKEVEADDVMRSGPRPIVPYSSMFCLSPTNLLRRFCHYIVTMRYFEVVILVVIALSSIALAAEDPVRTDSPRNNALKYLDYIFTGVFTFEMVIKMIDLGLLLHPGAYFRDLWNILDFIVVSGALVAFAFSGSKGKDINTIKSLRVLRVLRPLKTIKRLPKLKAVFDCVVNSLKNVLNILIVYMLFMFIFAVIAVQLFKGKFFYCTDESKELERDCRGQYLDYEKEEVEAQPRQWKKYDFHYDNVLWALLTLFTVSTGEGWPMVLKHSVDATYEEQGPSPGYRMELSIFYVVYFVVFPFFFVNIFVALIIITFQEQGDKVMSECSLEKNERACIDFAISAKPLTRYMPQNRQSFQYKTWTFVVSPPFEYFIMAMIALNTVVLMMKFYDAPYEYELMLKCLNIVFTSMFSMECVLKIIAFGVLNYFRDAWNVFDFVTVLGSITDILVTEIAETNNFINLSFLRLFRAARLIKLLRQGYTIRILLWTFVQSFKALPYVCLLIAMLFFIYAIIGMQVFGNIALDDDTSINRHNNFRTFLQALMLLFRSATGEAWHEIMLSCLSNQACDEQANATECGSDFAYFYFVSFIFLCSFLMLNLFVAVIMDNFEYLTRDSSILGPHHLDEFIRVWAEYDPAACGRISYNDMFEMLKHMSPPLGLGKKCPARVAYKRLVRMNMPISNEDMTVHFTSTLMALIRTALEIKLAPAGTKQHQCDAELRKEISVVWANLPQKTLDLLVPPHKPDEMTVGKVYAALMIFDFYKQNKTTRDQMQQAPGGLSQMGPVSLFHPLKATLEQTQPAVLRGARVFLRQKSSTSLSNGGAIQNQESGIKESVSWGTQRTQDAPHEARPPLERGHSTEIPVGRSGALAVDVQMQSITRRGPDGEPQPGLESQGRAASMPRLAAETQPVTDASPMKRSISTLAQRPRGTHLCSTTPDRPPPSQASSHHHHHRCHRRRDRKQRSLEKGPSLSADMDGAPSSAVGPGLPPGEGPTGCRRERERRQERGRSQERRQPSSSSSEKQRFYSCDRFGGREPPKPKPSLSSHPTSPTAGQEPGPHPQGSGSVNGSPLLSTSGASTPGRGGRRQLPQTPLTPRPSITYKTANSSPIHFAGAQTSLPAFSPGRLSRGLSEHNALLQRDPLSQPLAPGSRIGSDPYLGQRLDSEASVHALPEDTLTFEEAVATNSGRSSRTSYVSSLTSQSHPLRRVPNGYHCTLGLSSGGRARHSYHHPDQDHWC", "T4 sequence (Q02410 whole entry)": "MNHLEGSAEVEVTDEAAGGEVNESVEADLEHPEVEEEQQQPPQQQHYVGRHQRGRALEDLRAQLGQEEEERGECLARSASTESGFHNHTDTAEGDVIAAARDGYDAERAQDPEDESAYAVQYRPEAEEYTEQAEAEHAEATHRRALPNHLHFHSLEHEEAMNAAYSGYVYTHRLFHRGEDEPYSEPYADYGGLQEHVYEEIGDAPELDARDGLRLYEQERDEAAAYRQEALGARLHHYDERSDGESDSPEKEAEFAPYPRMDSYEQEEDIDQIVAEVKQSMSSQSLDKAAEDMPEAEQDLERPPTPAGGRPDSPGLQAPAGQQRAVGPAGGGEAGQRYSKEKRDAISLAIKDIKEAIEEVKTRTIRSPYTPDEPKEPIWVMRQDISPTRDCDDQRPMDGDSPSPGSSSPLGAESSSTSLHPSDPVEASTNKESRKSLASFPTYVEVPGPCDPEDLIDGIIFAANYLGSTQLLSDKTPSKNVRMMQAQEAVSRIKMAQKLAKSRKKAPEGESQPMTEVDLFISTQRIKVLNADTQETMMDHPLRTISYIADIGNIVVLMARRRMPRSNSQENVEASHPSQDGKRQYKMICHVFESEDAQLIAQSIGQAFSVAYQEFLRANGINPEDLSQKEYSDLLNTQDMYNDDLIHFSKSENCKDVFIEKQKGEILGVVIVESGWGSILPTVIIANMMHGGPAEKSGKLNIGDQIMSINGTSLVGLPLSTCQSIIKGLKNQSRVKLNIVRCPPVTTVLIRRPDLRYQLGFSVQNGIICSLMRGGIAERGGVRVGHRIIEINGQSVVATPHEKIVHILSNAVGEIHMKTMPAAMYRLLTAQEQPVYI", "assay": "disruptors of Mint-PDZ/N-type channel peptide interaction – biochemical, HTRF, set 2, SAR follow-up (AID 434980)", "assay_type": "functional"}, "[14]": {"target": "T4, Voltage-gated N-type calcium channel alpha-1B subunit/Amyloid beta A4 precursor protein-binding family A member 1", "assay": "disruptors of Mint-PDZ/N-type channel peptide interaction – biochemical, HTRF, SAR follow-up (AID 2489)", "assay_type": "functional"}, "[15]": {"target": "5-hydroxytryptamine receptor 5A (Homo sapiens, UniProt P47898)", "sequence (P47898 whole entry)": "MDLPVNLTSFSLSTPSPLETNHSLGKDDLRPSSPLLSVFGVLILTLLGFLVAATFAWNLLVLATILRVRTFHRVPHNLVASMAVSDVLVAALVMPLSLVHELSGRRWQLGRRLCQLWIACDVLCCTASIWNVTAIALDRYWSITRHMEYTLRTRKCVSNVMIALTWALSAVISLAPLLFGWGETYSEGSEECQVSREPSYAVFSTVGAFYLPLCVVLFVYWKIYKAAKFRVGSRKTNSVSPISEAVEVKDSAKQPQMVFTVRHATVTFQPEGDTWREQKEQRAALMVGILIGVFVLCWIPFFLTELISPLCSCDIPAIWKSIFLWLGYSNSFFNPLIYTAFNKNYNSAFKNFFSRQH", "assay": "Counterscreen for agonists of OPRM1-OPRD1 heterodimerization: luminescence-based cell-based high throughput dose response assay to identify agonists of 5-hydroxytryptamine (serotonin) 5A receptor (HTR5A). [Related pubchem assays (depositor defined):AID504326, AID504355, AID504692, AID504904, AID504905]", "assay_type": "functional"}, "H4 [16]": {"system": "H4", "assay": "inhibitors of control reporter signal in H4 cells – cell-based, plate reader, dry powder samples, counter-screen for prion reporter project, dose response (AID 540255)", "assay_type": "functional", "conditions": "Homo sapiens"}, "H4 [17]": {"system": "H4", "assay": "Inhibitors of Prion Protein 5' UTR mRNA Measured in Cell-Based System Using Plate Reader - 2078-01_Inhibitor_Dose_DryPowder_Activity. [Related pubchem assays (depositor defined):AID488894]", "assay_type": "functional", "conditions": "Homo sapiens"}, "INS1 [18]": {"system": "INS1", "assay": "inhibitors of cytokine-induced nitrite release, dose response, cell-based, Griess absorbance, INS-1E, dry powder (AID 488866)", "assay_type": "functional", "conditions": "Rattus norvegicus"}, "[19]": {"assay": "Luminescence Cell-Based Dose Retest to Confirm Inhibitors of Cancer Stem Cells. [Related pubchem assays (depositor defined):AID2717, AID2721]", "assay_type": "functional", "conditions": "Homo sapiens"}, "[20]": {"assay": "cytotoxicity in HMLE control line with eGFP shRNA, dose response, counter-screen for HMLE_sh_ECad selective toxicity project, cell-based, HMLE_sh_eGFP, luminescence (AID 463074);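 further: HMLE human mammary epithelial cells expressing control shRNA against eGFP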", "assay_type": "functional, Homo sapiens"}, "INS1 [21]": {"system": "INS1", "assay": "beta cell apoptosis inhibitors, cytokine rescue, dose response, luminescence, retest (AID 449756);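 further: cell death triggered by IL-1 beta plus TNF-alpha plus IFN-gamma mixture; protective hits raise ATP signal compared with cytokine alone wells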", "assay_type": "functional, cell-based", "conditions": "Rattus norvegicus"}}, "note": "The source made the active and inactive calls.", "data": [{"smiles": "C#CC(=O)N(c1cc(OC)ccc1OC)C(C(=O)NC1CCCC1)c1cccs1", "note": "(stereo unspecified)", "values": [{"measurement": "EC50", "setting": "[1]", "value": "0.692 µM (active)"}, {"measurement": "IC50", "setting": "[2]", "value": "0.096 µM (active)"}, {"measurement": "EC50", "setting": "[3]", "value": "4.13 µM (active)"}, {"measurement": "EC50", "setting": "[4]", "value": "3.99 µM (active)"}, {"measurement": "IC50", "setting": "Jurkat", "value": "0.23 µM (active)"}, {"measurement": "IC50", "setting": "[5]", "value": "55.6 µM (inactive)"}, {"measurement": "AC50", "setting": "[6]", "value": "1.94 µM (active)"}, {"measurement": "EC50", "setting": "Protein RecA", "value": "2.46 µM (active)"}, {"measurement": "IC50", "setting": "Melanocortin receptor 4", "value": "> 64.6 µM (inactive)"}, {"measurement": "AC50", "setting": "[7]", "value": "4.57 µM (active)"}, {"measurement": "AC50", "setting": "[8]", "value": "1.25 µM (active)"}, {"measurement": "AC50", "setting": "[9]", "value": "0.563 µM (active)"}, {"measurement": "IC50", "setting": "[10]", "value": "> 64.6 µM (inactive)"}, {"measurement": "IC50", "setting": "[11]", "value": "> 100 µM (active)"}, {"measurement": "CC50", "setting": "[12]", "value": "0.087 µM (active)"}]}, {"smiles": "Cc1ccccc1CNC(=O)COC(=O)c1cc(-c2ccco2)nc2ccccc12", "values": [{"measurement": "IC50", "setting": "SUMO E1/E2", "value": "3.83 µM (active)"}, {"measurement": "IC50", "setting": "[13]", "value": "10.9 µM (active)"}, {"measurement": "IC50", "setting": "[14]", "value": "20.2 µM (active)"}]}, {"smiles": "C=CCN1C[C@@H](C)N(C(c2ccc(C(=O)N(CC)CC)cc2)c2cccc(OC)c2)C[C@@H]1C", "note": "(stereo partly specified)", "values": [{"measurement": "EC50", "setting": "[15]", "value": "> 92.5 µM (inactive)"}]}, {"smiles": "CCCCc1ccc(-n2nc3cc(Cl)c(C(=O)NC(C)(C)C)cc3n2)cc1", "values": [{"measurement": "AC50", "setting": "H4 [16]", "value": "< 0.02 µM (active)"}, {"measurement": "AC50", "setting": "H4 [17]", "value": "0.032 µM (active)"}]}, {"smiles": "COc1ccc(S(=O)(=O)N(C)C[C@@H]2Oc3c(NC(=O)Nc4ccccc4-c4ccccc4)cccc3C(=O)N([C@@H](C)CO)C[C@H]2C)cc1", "values": [{"measurement": "AC50", "setting": "INS1 [18]", "value": "33.4 µM (active)"}]}, {"smiles": "Cc1oc(/N=C/c2ccccc2)c(C#N)c1C", "values": [{"measurement": "EC50", "setting": "[1]", "value": "> 195 µM (not active)"}, {"measurement": "AC50", "setting": "[19]", "value": "> 195 µM (inactive)"}, {"measurement": "AC50", "setting": "[20]", "value": "33.8 µM (active)"}, {"measurement": "AC50", "setting": "INS1 [21]", "value": "> 260 µM (inactive)"}]}]}
